Results on 32 compounds are retold here after US6605722B2, “Tyrosine derivatives with anti-leukotrienen activity” (Rotta Research Laboratorium S.p.A., priority 2000, dated 2003).

Usually melting point stands for the temperature of the solid-liquid transition. One may read the AUC as concentration integrated over time. What is called LD50 is the dose expected to kill half of the subjects tested. A low value points to a more toxic substance. By Kb is commonly meant the affinity of an antagonist, worked out from how it opposes an agonist.

Counter-ions that a name gives are not always drawn.

For series [1], the system named is contractions induced by LTD4 on isolated guinea-pig trachea. Put plainly: Antagonism of contractions induced by LTD4 on isolated guinea-pig trachea in vitro (Schild analysis). The conditions noted are these: for pA2 calculated according to Schild: LTD4 contraction; for pA2 calculated according to Schild / ED50 of LTD4 (cumulative dose-response curve): isolated guinea-pig trachea. As to the method: J. Physiol. Pharmacol. 67 (1989): 17-28], with slight modifications. […] The results were expressed as the effect as a percentage of the maximum contraction induced by 300 μM acetylcholine.

For series [2], the target named is T1, peptide-leukotriene receptor (Cavia porcellus, UniProt Q2NNR5).
T1 construct: from tissue; host or cells: guinea-pig lung membranes
T1 sequence (Q2NNR5 1-340): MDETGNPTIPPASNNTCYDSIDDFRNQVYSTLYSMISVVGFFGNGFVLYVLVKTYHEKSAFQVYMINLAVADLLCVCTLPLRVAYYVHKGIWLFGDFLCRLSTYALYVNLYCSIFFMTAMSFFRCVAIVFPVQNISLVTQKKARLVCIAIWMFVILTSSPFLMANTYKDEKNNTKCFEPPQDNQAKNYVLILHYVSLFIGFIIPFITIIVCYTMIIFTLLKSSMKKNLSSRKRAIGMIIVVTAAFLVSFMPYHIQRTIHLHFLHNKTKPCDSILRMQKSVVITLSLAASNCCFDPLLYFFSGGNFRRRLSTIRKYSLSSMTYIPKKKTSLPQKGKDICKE
The series is described as follows: Inhibition of the binding of [3H]-LTD4 to guinea-pig lung membranes. The conditions noted are these: for IC50: 0.3 nM [3H]-LTD4, guinea-pig lung membranes, 30 minutes at 25° C., read-out: IC50, concentration of antagonist displacing 50% of the [3H]-LTD4 ligand from the receptor; for affinity compared with the specific LTD4 agonist: guinea-pig lung membranes, nanomolar level. How it is done:
The method described by Frey et al. [Eur. J. Pharmacol. 244 (1993): 239-250] was followed, with slight modifications.
The separation of the bound from the free was performed by rapid filtration on Whatman GF/B paper filters.

A short description of series [3]: Plasma levels in rats (oral bio-availability). In kind it is in vivo. The conditions noted are these: 20 mg/kg. How it is done:
In addition to the potency shown in vitro in the models given by way of example above, an advantageous and important characteristic of the compounds of the present invention is their optimal oral bio-availability. Thus, for example, Compound 1, administered to rats at a dose of 20 mg/kg, provided a maximum plasma concentration (CMAX) of about 20 mcg/ml 1 hour after administration.

A further series has as its system mice. Put plainly: Acute toxicity (LD50) in mice. In kind it is in vivo. The conditions noted are these: oral route; effective dose 0.3 mg/kg. The source says:
(§1) The compounds according to the invention also have a low toxicity profile.

A short description of series [4]: Acute toxicity (LD50) in mice. In kind it is in vivo. The settings on record: mouse, in vivo.
Text: as §1

In series [5] the test system is sensitized guinea-pigs (ovalbumin challenge). Put plainly: Bronchoconstriction after aerosolized ovalbumin challenge in sensitized guinea-pigs. The format is in vivo. The conditions noted are these: 0.3 mg/kg orally 30 minutes before aerosolized ovalbumin challenge.
Setting [6] is: antagonist concentration 100 nM.

Compound `O=C(NC(Cc1ccc(OCc2ccc3ccccc3n2)cc1)C(=O)O)c1ccccc1` (stereo not shown) (as salt: hydrochloride) [Compound 2] had a melting point of 140 °C.
Same read-out and setting: in the case of `O=C(NC(Cc1ccc(OCc2ccc3ccccc3n2)cc1)C(=O)O)c1ccc(-c2ccccc2)cc1` (stereo not shown) (as salt: hydrochloride) [Compound 8] it was 230 °C (dec.).
Take `O=C(NC(Cc1ccc(OCc2ccc3ccccc3n2)cc1)C(=O)O)c1ccc2ccccc2n1` (racemic) [Compound 1, O-(2-quinolinylmethyl)-N-quinaldoyl-D,L-tyrosine]: the “pA2 calculated according to Schild” value in series [1] is “pA2 = 7.88”. Also, the “ED50 of LTD4 (cumulative dose-response curve)” value (“ED50 of LTD4” below) amounted to 4.53 nM in series [1] (antagonist concentration 10 nM), 15.31 nM in series [1] (antagonist concentration 30 nM) and 31.75 nM in series [1] (setting [6]). Also, in series [2], the IC50 came out at 20 nM. Moreover, the “time of maximum plasma concentration after administration” value in series [3] was 1 h. Also, in series [3] (rat, plasma, oral), the area under the curve (AUC) was approximately 50000 ng·h/mL. Further, the concentration at 8 h in series [3] (rat, plasma, oral, 8 h, read-out: plasma concentration 8 h after administration) was more than 2000 ng/mL. The Cmax in series [3] (rat, plasma, oral, read-out: maximum plasma concentration (CMAX)) is approximately 20000 ng/mL.
With `O=C(NC(Cc1ccc(OCc2ccc3ccc(F)cc3n2)cc1)C(=O)O)c1ccc2ccccc2n1` (racemic) [Compound 17, O-(7-fluoro-2-quinolinylmethyl)-N-quinaldoyl-D,L-tyrosine], the “pA2 calculated according to Schild” value in series [1] is “pA2 = 8.53”. Moreover, the results for the “ED50 of LTD4” value in series [1] (antagonist concentration 3 nM), in series [1] (antagonist concentration 30 nM) and in series [1] (antagonist concentration 300 nM) were 4.69 nM, 9.48 nM and 19.78 nM, respectively. The “acute toxic oral dose in mice relative to the pharmacologically effective dose” value in the series on mice is reported as “more than 1000 times”. Moreover, the LD50 in series [4] (iv) is more than 50 mg/kg; in series [4] (po), more than 300 mg/kg. Further, the “inhibition of the signs of bronchoconstriction (first appearance of abdominal contractions)” value in series [5] was “completely inhibited”. Moreover, the IC50 in series [2] amounted to 7.9 nM. The “affinity compared with the specific LTD4 agonist” value in series [2] is listed as “comparable”.
For the compound `O=C(NC(Cc1ccc(OCc2ccc3ccccc3n2)cc1)C(=O)O)c1ccccc1` (stereo not shown) [Compound 2], in series [2], the IC50 was 190 nM.
Compound `O=C(NC(Cc1ccc(OCc2ccc3ccccc3n2)cc1)C(=O)O)c1ccc(Cl)cc1` (stereo not shown) [Compound 3] gave a melting point of 197 °C. Also, the IC50 in series [2] came to 98.1 nM.
`O=C(NC(Cc1ccc(OCc2ccc3ccccc3n2)cc1)C(=O)O)c1cccc(Cl)c1` (stereo not shown) [Compound 4] yielded a melting point of 187 °C. For the same compound, in series [2], the IC50 came to 110 nM.
The like results for `COc1ccc(C(=O)NC(Cc2ccc(OCc3ccc4ccccc4n3)cc2)C(=O)O)cc1` (stereo not shown) [Compound 5] were, in that order, 212 °C and 117 nM.
The compound `O=C(NC(Cc1ccc(OCc2ccc3ccccc3n2)cc1)C(=O)O)c1ccc(C(F)(F)F)cc1` (stereo not shown) [Compound 6] came in with a melting point of 211 °C. The IC50 in series [2] is 42.7 nM.
In turn, `O=C(NC(Cc1ccc(OCc2ccc3ccccc3n2)cc1)C(=O)O)c1ccccc1-c1ccccc1` (stereo not shown) [Compound 7] came in with a melting point of 155 °C. Moreover, the IC50 in series [2] is 181 nM.
As for `O=C(NC(Cc1ccc(OCc2ccc3ccccc3n2)cc1)C(=O)O)c1ccc(-c2ccccc2)cc1` (stereo not shown) [Compound 8], the IC50 in series [2] was 61.7 nM.
`O=C(NC(Cc1ccc(OCc2ccc3ccc(Cl)cc3n2)cc1)C(=O)O)c1ccc(-c2ccccc2)cc1` (stereo not shown) [Compound 9] showed a melting point of 193 °C. The IC50 in series [2] came out at 217 nM.
The like results for `O=C(NC(Cc1ccc(OCc2ccc3ccccc3n2)cc1)C(=O)O)c1ccccn1` (stereo not shown) [Compound 10] were, in that order, 171 °C and 32.3 nM.
On to `O=C(NC(Cc1ccc(OCc2ccc3ccccc3n2)cc1)C(=O)O)c1ccc2ccccc2c1` (stereo not shown) [Compound 11], for which the melting point amounted to 196 °C. Moreover, in series [2], the IC50 was determined as 39 nM.
The matching figures for `O=C(NC(Cc1ccc(OCc2ccc3ccccc3n2)cc1)C(=O)O)c1cnc2ccccc2c1` (stereo not shown) [Compound 12]: 230 °C and 76 nM.
The compound `O=C(NC(Cc1ccc(OCc2ccc3ccccc3n2)cc1)C(=O)O)c1ccc2ncccc2c1` (stereo not shown) [Compound 13] registered a melting point of 248 °C. The IC50 in series [2] was 135 nM.
As for `O=C(NC(Cc1ccc(OCc2ccc3ccccc3n2)cc1)C(=O)O)c1cccc2cccnc12` (stereo not shown) [Compound 14], the melting point was 141 °C (dec.). The IC50 in series [2] is 64 nM.
The matching figures for `Cc1ccc2ccc(COc3ccc(CC(NC(=O)c4ccc5ccccc5n4)C(=O)O)cc3)nc2c1` (stereo not shown) [Compound 15]: 214 °C and 11.3 nM.
The matching figures for `O=C(NC(Cc1ccc(OCc2ccc3ccccc3n2)cc1)C(=O)O)c1ccnc2ccccc12` (stereo not shown) [Compound 16]: 224 °C and 200 nM.
Take `O=C(N[C@@H](Cc1ccc(OCc2ccc3ccc(F)cc3n2)cc1)C(=O)O)c1ccc2ccccc2n1` [Compound 18, O-(7-fluoro-2-quinolinylmethyl)-N-quinaldoyl-L-tyrosine]: in series [2], the IC50 came to 5.5 nM and the “affinity compared with the specific LTD4 agonist” value was “comparable”.
Consider `O=C(N[C@H](Cc1ccc(OCc2ccc3ccc(F)cc3n2)cc1)C(=O)O)c1ccc2ccccc2n1` [Compound 19, O-(7-fluoro-2-quinolinylmethyl)-N-quinaldoyl-D-tyrosine], for which the IC50 in series [2] came to 12.2 nM.
As to `O=C(NC(Cc1ccc(OCc2ccc3ccccc3n2)cc1)C(=O)O)c1nccc2ccccc12` (stereo not shown) [Compound 20], the melting point was determined as 157 °C. In series [2], the IC50 amounted to 64.1 nM.
`O=C(NC(Cc1ccc(OCc2ccc3ccccc3n2)cc1)C(=O)O)c1cc2ccccc2cn1` (stereo not shown) [Compound 21] yielded a melting point of 204 °C. Also, the IC50 in series [2] is 9.7 nM.
For `O=C(NC(Cc1ccc(OCc2ccc3ccc(F)cc3n2)cc1)C(=O)O)c1cc2ccccc2cn1` (stereo not shown) [Compound 22], the melting point is 227 °C. The Kb in series [1] (Cavia porcellus, equivalent to the calculated pA2) is 1.73 nM. The “ED50 of LTD4” value in series [1] (antagonist concentration 10 nM) is 8.03 nM. In addition, in series [1] (antagonist concentration 30 nM), the “ED50 of LTD4” value was determined as 13.71 nM. The “ED50 of LTD4” value in series [1] (setting [6]) is on record as 25.39 nM. Further, in series [2], the IC50 was determined as 5.3 nM and the “affinity compared with the specific LTD4 agonist” value was “comparable”.
The compound `O=C(NC(Cc1ccc(OCc2ccc3ccccc3n2)cc1)C(=O)O)c1cc2ccccc2[nH]1` (stereo not shown) [Compound 23] yielded a melting point of 223 °C. Further, in series [2], the IC50 turned out to be 103 nM.
In the case of `O=C(NC(Cc1ccc(OCc2ccc3ccccc3n2)cc1)C(=O)O)c1c[nH]c2ccccc12` (stereo not shown) [Compound 24], the melting point is 226 °C. Further, in series [2], the IC50 is 55.3 nM.
Regarding `Cn1c(C(=O)NC(Cc2ccc(OCc3ccc4ccccc4n3)cc2)C(=O)O)cc2ccccc21` (stereo not shown) [Compound 25], the melting point was determined as 198 °C. In addition, the IC50 in series [2] amounted to 34.8 nM.
The like results for `Cn1cc(C(=O)NC(Cc2ccc(OCc3ccc4ccccc4n3)cc2)C(=O)O)c2ccccc21` (stereo not shown) [Compound 26] were, in that order, 180 °C and 50.8 nM.
The matching figures for `O=C(NC(Cc1ccc(OCc2ccc3ccccc3n2)cc1)C(=O)O)c1cnc2ccccc2n1` (stereo not shown) [Compound 27]: more than 240 °C and 161 nM.
The like results for `O=C(NC(Cc1ccc(OCc2ccc3ccccc3n2)cc1)C(=O)O)c1cnnc2ccccc12` (stereo not shown) [Compound 28] were, in that order, 232 °C and more than 300 nM.
`O=C(NC(Cc1ccc(OCc2ccc3ccccc3n2)cc1)C(=O)O)c1ccc2nc[nH]c2c1` (stereo not shown) [Compound 29]: the melting point was more than 250 °C. Moreover, in series [2], the IC50 stood at 90.3 nM.
The matching figures for `O=C(NC(Cc1ccc(OCc2ccc3ccccc3n2)cc1)C(=O)O)c1ccc(-c2ccccc2)cn1` (stereo not shown) [Compound 30]: 170 °C and 24.1 nM.
